Source: the NIST ThermoML archive (doi:10.1021/je800110r)
Numbers after ± are expanded uncertainties.

Settings: 313.14 K, Liquid, Vibrating tube method

CCCCCCCCCC [decane]
Settings	mass density [kg/m3]
24173 kPa	733.5 ± 2.1
24196 kPa	733.5 ± 2.1
24223 kPa	733.4 ± 2.1
24245 kPa	733.5 ± 2.1
24268 kPa	733.6 ± 2.1
24304 kPa	733.6 ± 2.1
24331 kPa	733.6 ± 2.1
24351 kPa	733.6 ± 2.1
24391 kPa	733.7 ± 2.1
24420 kPa	733.7 ± 2.1
24455 kPa	733.7 ± 2.1
24491 kPa	733.7 ± 2.1
24527 kPa	733.7 ± 2.1
24559 kPa	733.8 ± 2.1
24591 kPa	733.7 ± 2.1
24632 kPa	733.9 ± 2.1
24668 kPa	733.9 ± 2.1
24704 kPa	733.9 ± 2.1
24729 kPa	733.9 ± 2.1
24758 kPa	734 ± 2.1
24787 kPa	733.9 ± 2.1
24824 kPa	733.9 ± 2.1
24854 kPa	734 ± 2.1
24889 kPa	734 ± 2.1
24918 kPa	734.1 ± 2.1
24952 kPa	734 ± 2.1
24983 kPa	734 ± 2.1
25018 kPa	734.1 ± 2.1
25049 kPa	734.2 ± 2.1
25080 kPa	734.1 ± 2.1
25107 kPa	734.2 ± 2.1
25129 kPa	734.2 ± 2.1
25161 kPa	734.2 ± 2.1
25188 kPa	734.2 ± 2.1
25215 kPa	734.2 ± 2.1
25255 kPa	734.3 ± 2.1
25287 kPa	734.3 ± 2.1
25323 kPa	734.3 ± 2.1
25351 kPa	734.4 ± 2.1
25387 kPa	734.3 ± 2.1
25415 kPa	734.3 ± 2.1
25452 kPa	734.5 ± 2.1
25489 kPa	734.4 ± 2.1
25558 kPa	734.6 ± 2.1
25618 kPa	734.5 ± 2.1
25650 kPa	734.6 ± 2.1
25684 kPa	734.6 ± 2.1
25712 kPa	734.5 ± 2.1
25750 kPa	734.5 ± 2.1
25778 kPa	734.6 ± 2.1
25811 kPa	734.6 ± 2.1
25840 kPa	734.7 ± 2.1
25878 kPa	734.8 ± 2.1
27095 kPa	735.5 ± 2.1
27127 kPa	735.5 ± 2.1
27155 kPa	735.6 ± 2.1
27178 kPa	735.5 ± 2.1
27206 kPa	735.6 ± 2.1
27239 kPa	735.7 ± 2.1
27267 kPa	735.7 ± 2.1
27295 kPa	735.5 ± 2.1
27328 kPa	735.7 ± 2.1
27370 kPa	735.7 ± 2.1
27403 kPa	735.7 ± 2.1
27432 kPa	735.8 ± 2.1
27465 kPa	735.8 ± 2.1
27498 kPa	735.7 ± 2.1
27527 kPa	735.8 ± 2.1
27560 kPa	735.9 ± 2.1
27599 kPa	735.8 ± 2.1
27627 kPa	735.8 ± 2.1
27661 kPa	735.9 ± 2.1
27685 kPa	735.8 ± 2.1
27728 kPa	735.9 ± 2.1
27767 kPa	736 ± 2.1
27811 kPa	736 ± 2.1
27850 kPa	735.9 ± 2.1
27898 kPa	736.1 ± 2.1
27932 kPa	736.2 ± 2.1
29093 kPa	736.8 ± 2.1
29131 kPa	736.9 ± 2.1
29195 kPa	737 ± 2.1
29243 kPa	737 ± 2.1
29286 kPa	736.9 ± 2.1
29330 kPa	737.1 ± 2.1
29369 kPa	737.1 ± 2.1
29414 kPa	737 ± 2.1
29452 kPa	737.1 ± 2.1
29496 kPa	737.2 ± 2.1
29524 kPa	737.1 ± 2.1
29568 kPa	737.2 ± 2.1
29611 kPa	737.2 ± 2.1
29645 kPa	737.3 ± 2.1
29684 kPa	737.2 ± 2.1
29729 kPa	737.2 ± 2.1
29763 kPa	737.3 ± 2.1
29809 kPa	737.3 ± 2.1
29845 kPa	737.3 ± 2.1
29878 kPa	737.3 ± 2.1
29923 kPa	737.4 ± 2.1
29963 kPa	737.5 ± 2.1
30003 kPa	737.5 ± 2.1
30049 kPa	737.5 ± 2.1
30089 kPa	737.6 ± 2.1
30124 kPa	737.6 ± 2.1
30171 kPa	737.5 ± 2.1
30212 kPa	737.5 ± 2.1
30248 kPa	737.6 ± 2.1
30281 kPa	737.7 ± 2.1
30319 kPa	737.6 ± 2.1
30352 kPa	737.7 ± 2.1
30401 kPa	737.8 ± 2.1
30433 kPa	737.7 ± 2.1
30466 kPa	737.8 ± 2.1
30504 kPa	737.8 ± 2.1
30542 kPa	737.8 ± 2.1
30575 kPa	737.8 ± 2.1
30614 kPa	737.9 ± 2.1
31015 kPa	738.1 ± 2.1
31049 kPa	738 ± 2.1
31124 kPa	738.2 ± 2.1
31165 kPa	738.2 ± 2.1
31205 kPa	738.3 ± 2.1
31251 kPa	738.3 ± 2.1
31303 kPa	738.3 ± 2.1
31332 kPa	738.3 ± 2.1
31379 kPa	738.3 ± 2.1
32818 kPa	739.4 ± 2.1
32847 kPa	739.2 ± 2.1
32891 kPa	739.4 ± 2.1
32920 kPa	739.3 ± 2.1
32965 kPa	739.4 ± 2.1
33007 kPa	739.5 ± 2.1
33037 kPa	739.5 ± 2.1
33079 kPa	739.5 ± 2.1
33103 kPa	739.6 ± 2.1
33135 kPa	739.5 ± 2.1
